According to patent US8106051B2, “Utilities of amide compounds” (Shionogi & Co., Ltd., priority 2001, dated 2012):

Experiments:
[1] = test system: promoter region of the gene encoding human apoAI; experiment: Activity to enhance the expression of human apoAI (apoAI promoter-luciferase reporter in HepG2 cells); format: cell-based; settings: HepG2 cells stably expressing human apoAI promoter-firefly luciferase reporter; 24 hours incubation; 0 to 10 μg/mL; control DMSO
Description: The promoter region of the gene encoding human apoAI was isolated, and ligated upstream the structure gene of firefly luciferase to construct a reporter plasmid. The reporter plasmid and a marker plasmid conferring the neomycin resistance were co-infected to cell lines derived from human hepatoma, HepG2 cells, and the cell lines were incubated in a selection medium comprising DMEM medium containing 10% fetal calf serum supplemented with G418 (Final concentration: 0.7 mg/mL, Gibco) to give established strains that stably expressed the reporter molecule. The strains were seeded to a 96-well culture plates at a density of 50,000 cells per well, and incubated for 48 hours at 37° C. under an atmosphere of 5% carbon dioxide. Then, a solution of the compounds according to the invention in DMSO was added to the wells at final concentrations of 0 to 10 μg/mL. After further incubation for 24 hours, the cells were added with a luciferase assay reagent (Piccagene LT 7.5 registered trade mark, Toyo Ink, KK), and the luciferase activity was determined using a luminometer (MicroBeta™ TRILUX, 1 sec/well, Wallac). The concentration of the compounds, which intensified the luciferase activity twice compared to that of control (DMSO without any compound of the invention added) was set as the minimal effective dose (MED).

melting point [°C]	SMILES	MED (minimal effective dose): concentration which intensified the luciferase activity twice compared to that of control [1] [µg/mL]
177 to 178	O=C(C=Cc1ccccc1)Nc1cnc2ccccc2n1 [Ia-9, 3-Phenyl-N-quinoxalin-2-yl-acrylamide]	–
–	Cc1ccc(NC(=O)c2ccc(Cl)cc2)cc1 [Ib-17, 4-Chloro-N-(4-tolyl)benzamide]	0.30
